Results taken from US7632972B2, “Compounds and methods for treatment of cancer and modulation of programmed cell death for melanoma and other cancer cells” (The Board of Trustees of the University of Illionis, priority 2003, dated 2009).

Legend:
Assay type in all cases: cell-based, human
MDA-MB-435 = assay: NCI 60 cell line screen (SRB), Breast Cancer
Source text: (§1) The operation of this screen utilizes 60 different human tumor cell lines, representing leukemia, melanoma and cancers of the lung, colon, brain, ovary, breast, prostate, and kidney. The aim is to prioritize for further evaluation, synthetic compounds or natural product samples showing selective growth inhibition or cell killing of particular tumor cell lines. This screen is unique in that the complexity of a 60 cell line dose response produced by a given compound results in a biological response pattern which can be utilized in pattern recognition algorithms. Using these algorithms, it is possible to assign a putative mechanism of action to a test compound, or to determine that the response pattern is unique and not similar to that of any of the standard prototype compounds included in the NCl database (see DTP Overview tab). In addition, following characterization of various cellular molecular targets in the 60 cell lines, it may be possible to select compounds most likely to interact with a specific molecular target.
(§2) The human tumor cell lines of the cancer screening panel are grown in RPMI 1640 medium containing 5% fetal bovine serum and 2 mM L-glutamine. For a typical screening experiment, cells are inoculated into 96 well microtiter plates in 100 μL at plating densities ranging from 5,000 to 40,000 cells/well depending on the doubling time of individual cell lines. After cell inoculation, the microtiter plates are incubated at 37° C., 5% CO2, 95% air and 100% relative humidity for 24 h prior to addition of experimental drugs.
(§3) After 24 h, two plates of each cell line are fixed in situ with TCA, to represent a measurement of the cell population for each cell line at the time of drug addition (Tz). Experimental drugs are solubilized in dimethyl sulfoxide at 400-fold the desired final maximum test concentration and stored frozen prior to use. At the time of drug addition, an aliquot of frozen concentrate is thawed and diluted to twice the desired final maximum test concentration with complete medium containing 50 μg/ml gentamicin. Additional four, 10-fold or ½ log serial dilutions are made to provide a total of five drug concentrations plus control. Aliquots of 100 μl of these different drug dilutions are added to the appropriate microtiter wells already containing 100 μl of medium, resulting in the required final drug concentrations.
(§4) Following drug addition, the plates are incubated for an additional 48 h at 37° C., 5% CO2, 95% air, and 100% relative humidity. For adherent cells, the assay is terminated by the addition of cold TCA. Cells are fixed in situ by the gentle addition of 50 μl of cold 50% (w/v) TCA (final concentration, 10% TCA) and incubated for 60 minutes at 4° C. The supernatant is discarded, and the plates are washed five times with tap water and air dried. Sulforhodamine B (SRB) solution (100 μl) at 0.4% (w/v) in 1% acetic acid is added to each well, and plates are incubated for 10 minutes at room temperature. After staining, unbound dye is removed by washing five times with 1% acetic acid and the plates are air dried. Bound stain is subsequently solubilized with 10 mM trizma base, and the absorbance is read on an automated plate reader at a wavelength of 515 nm. For suspension cells, the methodology is the same except that the assay is terminated by fixing settled cells at the bottom of the wells by gently adding 50 μl of 80% TCA (final concentration, 16% TCA). Using the seven absorbance measurements [time zero, (Tz), control growth, (C), and test growth in the presence of drug at the five concentration levels (Ti)], the percentage growth is calculated at each of the drug concentrations levels. Percentage growth inhibition is calculated as: [(Ti−Tz)/(C−Tz)]×100 for concentrations for which Ti>/=Tz [(Ti−Tz)/Tz]×100 for concentrations for which Ti<Tz.
(§5) Three dose response parameters are calculated for each experimental agent. […]

T-47D = assay: NCI 60 cell line screen (SRB), Breast Cancer
Source text: as §1, §2, §3, §4, §5

HS 578T = assay: NCI 60 cell line screen (SRB), Breast Cancer
Source text: as §1, §2, §3, §4, §5

MDA-MB-231/ATCC = assay: NCI 60 cell line screen (SRB), Breast Cancer
Source text: as §1, §2, §3, §4, §5

MCF7 = assay: NCI 60 cell line screen (SRB), Breast Cancer
Source text: as §1, §2, §3, §4, §5

SK-MEL-28 = assay: NCI 60 cell line screen (SRB), Melanoma
Source text: as §1, §2, §3, §4, §5

UACC-62 = assay: NCI 60 cell line screen (SRB), Melanoma
Source text: as §1, §2, §3, §4, §5

SK-MEL-5 = assay: NCI 60 cell line screen (SRB), Melanoma
Source text: as §1, §2, §3, §4, §5

SK-MEL-2 = assay: NCI 60 cell line screen (SRB), Melanoma
Source text: as §1, §2, §3, §4, §5

[1] = read-out: LC50 (the source's name)

COc1cccc(CCNC(=O)CC(c2ccccc2)(c2ccccc2)c2ccccc2)c1 [Compound Z3]
GI50 (MDA-MB-435; MDA-MB-435): 6.5 µM
TGI (MDA-MB-435; MDA-MB-435): >1.00E−04
Percent Growth (MDA-MB-435; MDA-MB-435, Log10 Concentration −4.0): 28%
Percent Growth (MDA-MB-435; MDA-MB-435, Log10 Concentration −5.0): 40%
Percent Growth (MDA-MB-435; MDA-MB-435, Log10 Concentration −6.0): 91%
Percent Growth (MDA-MB-435; MDA-MB-435, Log10 Concentration −7.0): 109%
Percent Growth (MDA-MB-435; MDA-MB-435, Log10 Concentration −8.0): 92%
CC50 (MDA-MB-435; MDA-MB-435, read-out: LC50 (the source's name)): > 100 µM
GI50 (T-47D): > 100 µM
TGI (T-47D): >1.00E−04
Percent Growth (T-47D; Log10 Concentration −4.0): 84%
Percent Growth (T-47D; Log10 Concentration −5.0): 55%
Percent Growth (T-47D; Log10 Concentration −6.0): 78%
Percent Growth (T-47D; Log10 Concentration −7.0): 108%
Percent Growth (T-47D; Log10 Concentration −8.0): 78%
CC50 (T-47D; [1]): > 100 µM
GI50 (HS 578T; MS 578T): > 100 µM
TGI (HS 578T; MS 578T): >1.00E−04
Percent Growth (HS 578T; MS 578T, Log10 Concentration −4.0): 55%
Percent Growth (HS 578T; MS 578T, Log10 Concentration −5.0): 85%
Percent Growth (HS 578T; MS 578T, Log10 Concentration −6.0): 101%
Percent Growth (HS 578T; MS 578T, Log10 Concentration −7.0): 126%
Percent Growth (HS 578T; MS 578T, Log10 Concentration −8.0): 101%
CC50 (HS 578T; [1]): > 100 µM
GI50 (MDA-MB-231/ATCC): > 100 µM
TGI (MDA-MB-231/ATCC): >1.00E−04
Percent Growth (MDA-MB-231/ATCC; Log10 Concentration −4.0): 147%
Percent Growth (MDA-MB-231/ATCC; Log10 Concentration −5.0): 75%
Percent Growth (MDA-MB-231/ATCC; Log10 Concentration −6.0): 59%
Percent Growth (MDA-MB-231/ATCC; Log10 Concentration −7.0): 69%
Percent Growth (MDA-MB-231/ATCC; Log10 Concentration −8.0): 68%
CC50 (MDA-MB-231/ATCC; [1]): > 100 µM
GI50 (MCF7; MCF7): 21.5 µM
TGI (MCF7; MCF7): >1.00E−04
Percent Growth (MCF7; MCF7, Log10 Concentration −4.0): 31%
Percent Growth (MCF7; MCF7, Log10 Concentration −5.0): 60%
Percent Growth (MCF7; MCF7, Log10 Concentration −6.0): 85%
Percent Growth (MCF7; MCF7, Log10 Concentration −7.0): 116%
Percent Growth (MCF7; MCF7, Log10 Concentration −8.0): 91%
CC50 (MCF7; MCF7, read-out: LC50 (the source's name)): > 100 µM
GI50 (SK-MEL-28; SK-MEL-28): > 100 µM
TGI (SK-MEL-28; SK-MEL-28): >1.00E−04
Percent Growth (SK-MEL-28; SK-MEL-28, Log10 Concentration −4.0): 94%
Percent Growth (SK-MEL-28; SK-MEL-28, Log10 Concentration −5.0): 103%
Percent Growth (SK-MEL-28; SK-MEL-28, Log10 Concentration −6.0): 96%
Percent Growth (SK-MEL-28; SK-MEL-28, Log10 Concentration −7.0): 105%
Percent Growth (SK-MEL-28; SK-MEL-28, Log10 Concentration −8.0): 84%
CC50 (SK-MEL-28; SK-MEL-28, read-out: LC50 (the source's name)): > 100 µM
GI50 (UACC-62; UACC-62): 0.613 µM
TGI (UACC-62; UACC-62): >1.00E−04
Percent Growth (UACC-62; UACC-62, Log10 Concentration −4.0): 22%
Percent Growth (UACC-62; UACC-62, Log10 Concentration −5.0): 14%
Percent Growth (UACC-62; UACC-62, Log10 Concentration −6.0): 41%
Percent Growth (UACC-62; UACC-62, Log10 Concentration −7.0): 83%
Percent Growth (UACC-62; UACC-62, Log10 Concentration −8.0): 94%
CC50 (UACC-62; UACC-62, read-out: LC50 (the source's name)): > 100 µM
GI50 (SK-MEL-5; SK-MEL-5): 4.84 µM
TGI (SK-MEL-5; SK-MEL-5): >1.00E−04
Percent Growth (SK-MEL-5; SK-MEL-5, Log10 Concentration −4.0): 15%
Percent Growth (SK-MEL-5; SK-MEL-5, Log10 Concentration −5.0): 21%
Percent Growth (SK-MEL-5; SK-MEL-5, Log10 Concentration −6.0): 113%
Percent Growth (SK-MEL-5; SK-MEL-5, Log10 Concentration −7.0): 112%
Percent Growth (SK-MEL-5; SK-MEL-5, Log10 Concentration −8.0): 80%
CC50 (SK-MEL-5; SK-MEL-5, read-out: LC50 (the source's name)): > 100 µM
GI50 (SK-MEL-2; SK-MEL-2): 4.41 µM
TGI (SK-MEL-2; SK-MEL-2): >1.00E−04
Percent Growth (SK-MEL-2; SK-MEL-2, Log10 Concentration −4.0): 18%
Percent Growth (SK-MEL-2; SK-MEL-2, Log10 Concentration −5.0): 24%
Percent Growth (SK-MEL-2; SK-MEL-2, Log10 Concentration −6.0): 97%
Percent Growth (SK-MEL-2; SK-MEL-2, Log10 Concentration −7.0): 85%
Percent Growth (SK-MEL-2; SK-MEL-2, Log10 Concentration −8.0): 80%
CC50 (SK-MEL-2; SK-MEL-2, read-out: LC50 (the source's name)): > 100 µM
